According to US20210145801A1, “THERAPY FOR PROTEIN MISFOLDING DISEASE” (WREN THERAPEUTICS LIMITED, priority 2018, published 2021):
Entries after “also recorded” stand apart in the source; their conditions may differ.

Legend:
[1] = target: T1, Aβ40 (Homo sapiens, UniProt P05067); assay: Aβ40 aggregation kinetics; format: biochemical; conditions: 10 μM Aβ40; 1.25-fold excess
T1 construct: similar kinetics experiments were performed on the 40-residue isoform, Aβ40
Protocol: For the experiments monitoring Aβ40 aggregation kinetics, the experiments were performed similarly to those described above for Aβ42 at a concentration of 10 μM of Aβ40 in the absence or presence of 1.25-fold excess of Netoglitazone.

[2] = target: T2, Aβ42 oligomers (Homo sapiens, UniProt P05067); assay: ELISA with oligomer-specific antibody; format: biochemical; conditions: 5 μM Aβ42; 5-fold excess; at half-time of Aβ42 alone
T2 construct: made in house; host or cells: E. coli BL21 Gold (DE3)
Protocol: 20 μl Aliquots were taken at the t50 (i.e. half-time) from aggregation reactions of 5 μM Aβ42 in the absence and in the presence of 5-fold excess of Netoglitazone. Samples were then immobilised on a 96-well Maxisorp ELISA plate (Nunc, Roskilde, Denmark) with no shaking for 1 h at room temperature. The plate was then washed three times with 20 mM Tris pH 7.4, 100 mM NaCl and incubated in 20 mM Tris pH 7.4, 100 mM NaCl, 5% BSA under constant shaking overnight at 4° C. The day after the plate was washed six times with 20 mM Tris pH 7.4, 100 mM NaCl and then incubated with 30 μl solutions of 5 μM oligomer-specific antibody under constant shaking either for 1 hour or overnight at room temperature. At the end of this incubation, the plate was washed six times with 20 mM Tris pH 7.4, 100 mM NaCl and incubated with 30 μl solutions of Rabbit polyclonal to 6× His Tag® HRP conjugated (Abcam, Cambridge, UK) at a dilution of 1:4000 in 20 mM Tris pH 7.4, 100 mM NaCl, 5% BSA under shaking for 1 hour at room temperature. […] Finally, the amount of bound oligomer-specific antibody was quantified by using 1-Step™ Ultra TMB-ELISA Substrate Solution (ThermoFisher Scientific, Waltham, Mass., United States), according to manufacturer instructions, and measuring the absorbance at 450 nm by means of a CLARIOstar plate reader (BMG Labtech, Aylesbury, UK).

[3] = target: T3, Aβ plaques in AD worms (GMC101) (Homo sapiens, UniProt P05067); assay: NIAD-4 staining of plaques load in living AD worms; format: in vivo, C. elegans
T3 construct: unc-54p::A-beta-1-42 expresses full-length human Aβ42 peptide in body wall muscle cells; expressed in transfected cells; host or cells: C. elegans strain GMC101 (dvIs100), body wall muscle cells
Protocol: GMC101 dvIs100 [unc-54p::A-beta-1-42::unc-54 3′UTR+mtl-2p::GFP]. mtl-2p::GFP produces constitutive expression of GFP in intestinal cells. unc-54p::A-beta-1-42 expresses full-length human Aβ42 peptide in body wall muscle cells that aggregates in vivo. Shifting L4 or young adult animals from 20° to 24° C. causes paralysis (G. McColl et al., Utility of an improved model of amyloid-beta (Aβ1-42) toxicity in Caenorhabditis elegans for drug screening for Alzheimer's disease. Mol Neurodegener. 7, 57 (2012));
Briefly, Netoglitazone stocks (5 mM in 100% DMSO) were used at an appropriate concentration to seed 9-cm NGM plates. Plates were then placed in a laminar flow hood at room temperature (22° C.) for up to 4 hours to dry. […]
Plaques staining was carried out as previously described (J. Habchi et al. (2016); M. Perni et al., A natural product inhibits the initiation of α-synuclein aggregation & suppresses its toxicity. Proc. Natl. Acad. Sci. U.S.A. 114, E1009-E1017 (2017)). […] Images were captured with a Zeiss Axio Observer D1 fluorescence microscope (Carl Zeiss Microscopy GmbH) with a 20× objective and a 49004 ET-CY3/TRITC filter (Chroma Technology Corp). Fluorescence intensity was calculated using ImageJ software (National Institutes of Health) and then normalized as the corrected total cell fluorescence. […] Statistical significance was determined using t tests.

T3 sequence (P05067 672-713 limits assumed): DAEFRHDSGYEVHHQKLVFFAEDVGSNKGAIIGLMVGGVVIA
T2 sequence (P05067 671-713): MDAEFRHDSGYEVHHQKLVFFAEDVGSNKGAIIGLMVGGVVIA
T1 sequence (P05067 672-711 limits assumed): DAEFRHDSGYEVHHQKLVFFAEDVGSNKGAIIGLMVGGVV

## O=C1NC(=O)C(Cc2ccc3cc(OCc4ccccc4F)ccc3c2)S1 (stereo not shown) [Netoglitazone]
[1]
  Inhibition of Aβ40 aggregation: able to inhibit Aβ40 aggregation similarly to the 42-residue isoform
[2]
  Aβ42 oligomer concentration (ELISA): significant reduction in the Aβ42 oligomer concentration
[3]; 0.5 μM administered at L4, day 6 of adulthood
  Plaques load in AD worms (NIAD-4 fluorescence): significantly decrease the plaques load; also recorded: Decrease in the plaques load in AD worms
[3]; administered at D3 of adulthood, read at D6
  Plaques load in AD worms after late administration: significant decrease of the plaques load at D6; also recorded: decreases the plaques load at D6 of adulthood
